Assay results taken from US20190382396A1, “SALTS OF BICYCLO[1.1.1]PENTANE INHIBITORS OF DUAL LEUCINE ZIPPER (DLK) KINASE FOR THE TREATMENT OF DISEASE” (Board of Regents, The University of Texas System, priority 2018, published 2019).
Like-named read-outs stand apart in the source and are kept apart here.

How the values were obtained:
Format in all cases: physicochemical
[1] = Solubility in physiologically relevant solutions (SGF, FaSSIF, FeSSIF); conditions: 25±0.5° C.; for solubility at 24 h: 25 °C, thermodynamic from solid
Method: Solubility of the free base 1 and the selected salts 8, 9, 10, and 11 in physiologically relevant solutions were examined. For each material, aliquots were added to 2 ml vials containing 500 uL of either SGF, FaSSIF, or FeSSIF, which were then sealed. The mixtures were kept shaking by thermomixer at 700 rpm, 25±0.5° C. for 24 h to facilitate the dissolution and then centrifuged by 96-well plates at 3000 rpm for 2 min. The filter liquors were diluted with diluents (ACN/water, 50/50) and analyzed by HPLC.

[2] = Particle size distribution of hydrogen fumarate salt 11; conditions: for D-value: in µm (unit assumed)
Method: VMD=[…]; STD=[…]; Duration=0.04; Copt=2.90.

[3] = Dynamic vapor sorption (DVS), hygroscopicity
Method: Dynamic vapor sorption (“DVS”) was performed at 25° C., using approx 10-15 mg of sample and N2 gas at a flow rate of 200 mL/min, dm/dt=0.01% min, minimum dm/dt stability duration of 10 min, max equilibration time of 180 min, drying at 0% RH for 120 min, scanning from 0% RH to 90% RH to 0% RH with a step size of 10% RH.
Total cycling time varied, but in all cases was about 200-250 min.

[4] = Solubility of hydrogen fumarate salt 11 (1000 mg scale-up batch)
[5] = Polymorph formation of hydrogen fumarate salt 11 (slurry, anti-solvent, heat-cool); design: key to Observation 50° C. / observation rt / observation 60° C.: “s” = slurry; “c” = clear
Method: Formation of polymorphs of the hydrogen fumarate salt 11 was examined. About 15 mg of hydrogen fumarate salt 11 was combined with 0.5 mL of a selected organic solvent in a vial. The mixture was stirred at 700 RPM at 50° C. for 2 days. If a solid precipitate was present, the solid precipitate was then removed by centrifugation (14,000 RPM, 5 min) and dried under vacuum at 30° C. (Method I). If a solid precipitate was not present, the solvent was removed by evaporation under vacuum at 30° C. (Method II). In either case, the resulting material was evaluated by XRPD.
Polymorph formation was examined with a slurry method using various solvents. About 500 mg of hydrogen fumarate salt 11 was combined with 50 mL of DMSO and 1 mL DMF to afford a saturated solution. Anti-solvent (no more than 5x solution volume) chosen from EtOH, iPrOH, acetone, water, and EtOAc was added. In no case was a precipitate formed.
Polymorph formation was further examined with a heat-cool method using various solvents. About 100 mg of hydrogen fumarate salt 11 was combined with 1 mL of a selected solvent. The mixture was stirred at 700 RPM for 4 hrs at 60° C., then allowed to cool to room temperature. The cycle was repeated twice. If a solid precipitate was present, the solid precipitate was then removed by centrifugation and dried under vacuum at 30° C. (Method I). If a solid precipitate was not present, the solvent was removed by evaporation (Method II). In either case, the resulting material was evaluated by XRPD.

solubility at 24 h ([1]; simulated gastric fluid, SGF, read-out: Solubility SGF Conc): 5.81 mg/mL
solubility at 24 h ([1]; FaSSIF, read-out: Solubility FaSSIF Conc): 0.459 mg/mL
solubility at 24 h ([1]; FeSSIF, read-out: Solubility FeSSIF Conc): 0.646 mg/mL
FaSSIF pH after 24 h ([1]; FaSSIF): 4.85
FeSSIF pH after 24 h ([1]; FeSSIF): 4.84
SGF pH after 24 h ([1]; SGF): 3.01
PSD D90 ([2]; 8500 mg scale-up batch): D90 = 43 uM
D-value ([2]; % level 5): 1.20
D-value ([2]; % level 10): 2.21
D-value ([2]; % level 15): 3.64
D-value ([2]; % level 20): 5.39
D-value ([2]; % level 25): 7.16
D-value ([2]; % level 30): 8.89
D-value ([2]; % level 35): 10.58
D-value ([2]; % level 40): 12.28
D-value ([2]; % level 45): 14.04
D-value ([2]; % level 50): 15.88
D-value ([2]; % level 55): 17.79
D-value ([2]; % level 60): 19.93
D-value ([2]; % level 65): 22.30
D-value ([2]; % level 70): 24.85
D-value ([2]; % level 75): 28.06
D-value ([2]; % level 80): 31.79
D-value ([2]; % level 85): 36.34
D-value ([2]; % level 90): 42.91
D-value ([2]; % level 95): 54.73
Maximum sorption ([3]; DVS, 25° C.): 0.47%
Hygroscopicity (0-40% RH) ([3]; DVS, 25° C., 0-40% RH): 0.1%
Hygroscopicity (0-90% RH) ([3]; DVS, 25° C., 0-90% RH): 0.47%
Change in mass (%) Desorption ([3]; DVS, Target % P/P0 0.0): −0.0114%
Change in mass (%) Sorption ([3]; DVS, Target % P/P0 0.0): 0.0000%
Change in mass (%) Desorption ([3]; DVS, Target % P/P0 10.0): 0.0209%
Change in mass (%) Hysteresis ([3]; DVS, Target % P/P0 10.0): 0.0010%
Change in mass (%) Sorption ([3]; DVS, Target % P/P0 10.0): 0.0200%
Change in mass (%) Desorption ([3]; DVS, Target % P/P0 20.0): 0.0448%
Change in mass (%) Hysteresis ([3]; DVS, Target % P/P0 20.0): 0.0067%
Change in mass (%) Sorption ([3]; DVS, Target % P/P0 20.0): 0.0381%
Change in mass (%) Desorption ([3]; DVS, Target % P/P0 30.0): 0.0866%
Change in mass (%) Hysteresis ([3]; DVS, Target % P/P0 30.0): 0.0286%
Change in mass (%) Sorption ([3]; DVS, Target % P/P0 30.0): 0.0581%
Change in mass (%) Desorption ([3]; DVS, Target % P/P0 40.0): 0.1238%
Change in mass (%) Hysteresis ([3]; DVS, Target % P/P0 40.0): 0.0267%
Change in mass (%) Sorption ([3]; DVS, Target % P/P0 40.0): 0.0971%
Change in mass (%) Desorption ([3]; DVS, Target % P/P0 50.0): 0.1695%
Change in mass (%) Hysteresis ([3]; DVS, Target % P/P0 50.0): 0.0352%
Change in mass (%) Sorption ([3]; DVS, Target % P/P0 50.0): 0.1343%
Change in mass (%) Desorption ([3]; DVS, Target % P/P0 60.0): 0.2285%
Change in mass (%) Hysteresis ([3]; DVS, Target % P/P0 60.0): 0.0457%
Change in mass (%) Sorption ([3]; DVS, Target % P/P0 60.0): 0.1828%
Change in mass (%) Desorption ([3]; DVS, Target % P/P0 70.0): 0.2885%
Change in mass (%) Hysteresis ([3]; DVS, Target % P/P0 70.0): 0.0438%
Change in mass (%) Sorption ([3]; DVS, Target % P/P0 70.0): 0.2447%
Change in mass (%) Hysteresis ([3]; DVS, Target % P/P0 80.0): 0.0390%
Change in mass (%) Sorption ([3]; DVS, Target % P/P0 80.0): 0.3295%
Change in mass (%) Desorption ([3]; DVS, Target % P/P0 90.0): 0.4742%
Change in mass (%) Sorption ([3]; DVS, Target % P/P0 90.0): 0.4742%
Hygroscopicity; form change ([3]; form change after DVS): no change
solubility ([4]; aqueous with cosolvent or surfactant or cyclodextrin, 1/1 (v/v) Acetone/H2O, 50° C.): 50 to 100 mg/mL
solubility ([4]; aqueous with cosolvent or surfactant or cyclodextrin, 1/1 (v/v) Acetone/H2O, RT): < 33 mg/mL
solubility ([4]; aqueous with cosolvent or surfactant or cyclodextrin, 1/1 (v/v) EtOH/H2O, 50° C.): 50 to 100 mg/mL
solubility ([4]; aqueous with cosolvent or surfactant or cyclodextrin, 1/1 (v/v) EtOH/H2O, RT): 20 to 33 mg/mL
solubility ([4]; ethanol, organic solvent or mixture, EtOH, 50° C.): 20 to 33 mg/mL
solubility ([4]; ethanol, organic solvent or mixture, EtOH, RT): < 20 mg/mL
solubility ([4]; organic solvent or mixture, ACN, 50° C.): < 10 mg/mL
solubility ([4]; organic solvent or mixture, ACN, RT): < 10 mg/mL
solubility ([4]; organic solvent or mixture, Acetone, 50° C.): 10 to 20 mg/mL
solubility ([4]; organic solvent or mixture, Acetone, RT): < 10 mg/mL
solubility ([4]; organic solvent or mixture, DCM, 50° C.): < 10 mg/mL
solubility ([4]; organic solvent or mixture, DCM, RT): < 10 mg/mL
solubility ([4]; organic solvent or mixture, DMF, RT): > 100 mg/mL
solubility ([4]; organic solvent or mixture, DMSO, 50° C.): > 100 mg/mL
solubility ([4]; organic solvent or mixture, DMSO, RT): < 100 mg/mL
solubility ([4]; organic solvent or mixture, Dioxane, 50° C.): 20 to 33 mg/mL
solubility ([4]; organic solvent or mixture, Dioxane, RT): < 20 mg/mL
solubility ([4]; organic solvent or mixture, EtOAc, 50° C.): < 10 mg/mL
solubility ([4]; organic solvent or mixture, EtOAc, RT): < 10 mg/mL
solubility ([4]; organic solvent or mixture, Heptane, 50° C.): < 10 mg/mL
solubility ([4]; organic solvent or mixture, Heptane, RT): < 10 mg/mL
solubility ([4]; organic solvent or mixture, IPA, 50° C.): 20 to 33 mg/mL
solubility ([4]; organic solvent or mixture, IPA, RT): 10 to 20 mg/mL
solubility ([4]; organic solvent or mixture, MEK, 50° C.): 10 to 20 mg/mL
solubility ([4]; organic solvent or mixture, MEK, RT): < 10 mg/mL
solubility ([4]; organic solvent or mixture, MTBE, 50° C.): < 10 mg/mL
solubility ([4]; organic solvent or mixture, MTBE, RT): < 10 mg/mL
solubility ([4]; organic solvent or mixture, MeOH, 50° C.): 50 to 100 mg/mL
solubility ([4]; organic solvent or mixture, MeOH, RT): 25 to 50 mg/mL
solubility ([4]; organic solvent or mixture, THF, 50° C.): 33 to 50 mg/mL
solubility ([4]; organic solvent or mixture, THF, RT): < 10 mg/mL
solubility ([4]; organic solvent or mixture, Toluene, 50° C.): < 10 mg/mL
solubility ([4]; organic solvent or mixture, Toluene, RT): < 10 mg/mL
solubility ([4]; water, H2O, 50° C.): 10 to 20 mg/mL
solubility ([4]; water, H2O, RT): < 10 mg/mL
observation 60° C. ([5]; heat-cool method, Acetone): s
observation rt ([5]; heat-cool method, Acetone): s
observation 60° C. ([5]; heat-cool method, EtOAc): s
observation rt ([5]; heat-cool method, EtOAc): s
observation 60° C. ([5]; heat-cool method, EtOH): s
observation rt ([5]; heat-cool method, EtOH): s
XRPD results ([5]; heat-cool method, THF): amorphous
observation 60° C. ([5]; heat-cool method, THF): c
observation rt ([5]; heat-cool method, THF): c
observation 60° C. ([5]; heat-cool method, iPrOH): s
observation rt ([5]; heat-cool method, iPrOH): s
Observation 50° C. ([5]; slurry 50° C., 2 days, 1/1 (v/v) EtOH/H2O): c
Observation 50° C. ([5]; slurry 50° C., 2 days, 1/1 (v/v) acetone/H2O): c
Observation 50° C. ([5]; slurry 50° C., 2 days, Acetone): c
Observation 50° C. ([5]; slurry 50° C., 2 days, CH2Cl2): s
Observation 50° C. ([5]; slurry 50° C., 2 days, CH3CN): s
Observation 50° C. ([5]; slurry 50° C., 2 days, Dioxane): c
Observation 50° C. ([5]; slurry 50° C., 2 days, EtOAc): s
Observation 50° C. ([5]; slurry 50° C., 2 days, EtOH): c
Observation 50° C. ([5]; slurry 50° C., 2 days, H2O): s
Observation 50° C. ([5]; slurry 50° C., 2 days, Heptane): s
Observation 50° C. ([5]; slurry 50° C., 2 days, MeOH): c
XRPD pattern ([5]; slurry 50° C., 2 days, MeOH): almost
Observation 50° C. ([5]; slurry 50° C., 2 days, Toluene): s
Observation 50° C. ([5]; slurry 50° C., 2 days, iPrOH): c
Compound: CC(C)c1nc(-c2cnc(N)c(OC(F)(F)F)c2)cn1C12CC(N3CCOCC3)(C1)C2.O=C(O)/C=C/C(=O)O [Example 11, 5-(2-isopropyl-1-(3-morpholinobicyclo[1.1.1]pentan-1-yl)-1H-imidazol-4-yl)-3-(trifluoromethoxy)pyridin-2-amine hydrogen fumarate]
